Drawing on US4421912A, “Cephalosporin derivatives” (Takeda Chemical Industries, Ltd., priority 1973, dated 1983), this text covers MIC, ED50 and Antibacterial spectra for 3 compounds.

Molecules are shown by their SMILES. ≈ marks a conversion by molar mass, not a printed value. Like-named read-outs stand apart in the source and are kept apart here.

The test system of assay [1] is P. vulgaris Eb-57. The assay is described as follows: Antibacterial spectra, agar dilution method. It counts as cell-based. The note with it: Proteus vulgaris. From the text: |(mcg/ml., agar dilution method)
For orientation: In agar dilution, organisms are placed on agar that contains the substance at set levels.

Assay [2] deals with K. pneumoniae DT. The assay is described as follows: Antibacterial spectra, agar dilution method. It counts as cell-based. The settings on record: Klebsiella pneumoniae.
The subject of assay [3] is S. aureus 209P. Briefly: Antibacterial spectra, agar dilution method. The class given is cell-based. The note with it: Staphylococcus aureus.
Description: (§1) (mcg/ml., agar dilution method)
as §1
(§2) (mcg/ml, agar dilution method)
(§3) (mcg./ml., agar dilution method)

The subject of assay [4] is S. aureus 1840. Briefly: Antibacterial spectra, agar dilution method. The class given is cell-based.
Description: as §1, §1, §2, §3

Assay [5] relates to E. coli NIHJ JC-2. The assay is described as follows: Antibacterial spectra, agar dilution method. The settings on record: Escherichia coli. The class given is cell-based.
Description: as §1, §1, §2, §3

The subject of assay [6] is E. coli 0-111. Briefly: Antibacterial spectra, agar dilution method. The class given is cell-based.
Description: as §1, §1, §2, §3

The test system of assay [7] is P. vulgaris Eb-58. The assay is described as follows: Antibacterial spectra, agar dilution method. It counts as cell-based. The note with it: Proteus vulgaris, EB58, tables in Examples 13 and 16.
Description: as §1, §2

Assay [8] deals with P. vulgaris IFO 3988. Briefly: Antibacterial spectra, agar dilution method. The class given is cell-based. The note with it: Proteus vulgaris, IFO3988; P. vulgaris IFO 3988; agar dilution method; Table 11; read-out: Antibacterial spectra. From the text:
(§4) |(mcg./ml., agar dilution method)

For assay [9], the system named is E. coli T-7. The assay is described as follows: Antibacterial spectra, agar dilution method. It counts as cell-based. The settings on record: Escherichia coli, T7; E. coli T-7; agar dilution method; Table 11; read-out: Antibacterial spectra.
Description: as §4

Assay [10] concerns Escherichia coli 0111. Briefly: Protective Effect on Infected Mice. The class given is in vivo. The settings on record: Escherichia coli, 0111, sc, 168 h, male ICR/SLC mice, i.p. E. coli 0111, single subcutaneous dose immediately after challenge, 7 days. From the text: Protective Effect (ED50 * , mg/kg) on Infected Mice
*Test animals: male mice (ICR/SLC) 5 mice per group per single dose
Infection: intraperitoneally with Escherichia coli 0111
Administration: a single subcutaneous dose immediately after challenge
Observation period: 7 days
*Test animals: male mice (ICR/SLC) 5 mice per group single dose

Assay [11] relates to P. morganii Eb53. The assay is described as follows: Antibacterial spectra, agar dilution method. It counts as cell-based. The settings on record: P. morganii Eb53, agar dilution method; for MIC: Morganella morganii, Table 11, read-out: Antibacterial spectra; for Antibacterial spectra: table in Example 16.
Description: as §2, §3

The mark [12] stands for this setting: 209P, read-out: Antibacterial spectra, S. aureus 209P, tables in the Examples.
Where [13] appears, read: Staphylococcus aureus, 1840, read-out: Antibacterial spectra, S. aureus 1840, tables in the Examples.
Where [14] appears, read: EB57, P. vulgaris Eb-57, agar dilution method, table in Example 10, read-out: Antibacterial spectra.
Setting [15] is: 209P, read-out: Antibacterial spectra, S. aureus 209P, Table 11.
The mark [16] stands for this setting: S. aureus 209P, tables in the Examples, read-out: Antibacterial spectra.
[17] abbreviates: Staphylococcus aureus, 1840, read-out: Antibacterial spectra, S. aureus 1840, Table 11.
The mark [18] stands for this setting: Escherichia coli, 0111, E. coli 0-111, Table 11.
Where [19] appears, read: Escherichia coli, 0111, E. coli 0-111, tables in the Examples.
The mark [20] stands for this setting: NIHJJC2, read-out: Antibacterial spectra, E. coli NIHJ JC-2, Table 11.
Where [21] appears, read: NIHJJC2, read-out: Antibacterial spectra, E. coli NIHJ JC-2, tables in the Examples.

With `CC(=O)OCC1=C(C(=O)O)N2C(=O)C(NC(=O)Cc3csc(N)n3)C2SC1` (stereo not drawn) [Example 10, sodium 7-[2-(2-aminothiazol-4-yl)acetamido]-3-acetoxymethyl-3-cephem-4-carboxylat], the MIC in assay [1] (EB57, read-out: Antibacterial spectra) is less than 0.78 µg/mL; in [2] (tables in the Examples) it was less than 0.78 µg/mL; in assay [3] (setting [12]), less than 0.78 µg/mL; in [4] (setting [13]), 1.56 µg/mL; in assay [5] (NIHJJC2, E. coli NIHJ JC-2, tables in the Examples, read-out: Antibacterial spectra), 1.56 µg/mL.

In general, ED50 refers to the dose that gives a 50% effect, or the effect in half of the subjects. On to `O=C(Cc1cccs1)N[C@@H]1C(=O)N2C(C(=O)[O-])=C(C[n+]3ccccc3)CS[C@H]12` [Cephaloridine, reference compound], for which the MIC in assay [1] (setting [14]) is greater than 100 µg/mL; in [2] (Table 11), 1.56 µg/mL (≈ 3.75 µM); in [2] (tables in the Examples), 3.12 µg/mL (≈ 7.52 µM); in [3] (setting [15]), no more than 0.2 µg/mL; in [3] (setting [16]), 0.05 µg/mL (≈ 0.12 µM); in assay [4] (setting [17]), 0.39 µg/mL (≈ 0.939 µM). In addition, the MIC stood at 0.39 µg/mL (≈ 0.939 µM) in assay [4] (setting [13]); 1.56 µg/mL (≈ 3.75 µM) in assay [6] (setting [18]); 3.12 µg/mL (≈ 7.52 µM) in [6] (setting [19]); 3.13 µg/mL (≈ 7.53 µM) in [5] (setting [20]); 6.25 µg/mL (≈ 15 µM) in assay [5] (setting [21]); 12.5 µg/mL (≈ 30.1 µM) in assay [7]. Besides, the values for the MIC in assay [8], in assay [9] and in assay [11] were 6.25 µg/mL (≈ 15 µM), greater than 100 µg/mL and greater than 100 µg/mL, respectively. Further, the ED50 in assay [10] (Table 12, read-out: Protective Effect (ED50) on Infected Mice) came to 2.81 mg/kg; in [10] (Table 13, read-out: ED50), 1.94 mg/kg; in assay [10] (Table 14, read-out: ED50) it was 3.57 mg/kg. For the same compound, the Antibacterial spectra in [11] is greater than 100 µg/mL.

`Cc1nnc(SCC2=C(C(=O)O)N3C(=O)[C@@H](NC(=O)Cn4cnnn4)[C@H]3SC2)s1` [Cephazolin, reference compound]: the MIC in [1] (setting [14]) is 50 µg/mL (≈ 110 µM); in assay [2] (Table 11) it was 1.56 µg/mL (≈ 3.43 µM); in assay [2] (tables in the Examples), 1.56 µg/mL (≈ 3.43 µM); in [3] (setting [15]), no more than 0.2 µg/mL; in [3] (setting [12]), 0.1 µg/mL (≈ 0.22 µM); in [3] (setting [16]) it was 0.01 µg/mL (≈ 0.022 µM). Besides, the MIC in [4] (setting [17]) was 0.78 µg/mL (≈ 1.72 µM); in assay [4] (setting [13]) it was 1.56 µg/mL (≈ 3.43 µM); in [6] (setting [18]), 0.78 µg/mL (≈ 1.72 µM); in assay [6] (setting [19]), 1.56 µg/mL (≈ 3.43 µM); in [5] (setting [20]) it was 1.56 µg/mL (≈ 3.43 µM); in assay [5] (setting [21]), 1.56 µg/mL (≈ 3.43 µM). In addition, the MIC in assay [7] stood at 6.25 µg/mL (≈ 13.8 µM); in [8], 6.25 µg/mL (≈ 13.8 µM); in [9], 50 µg/mL (≈ 110 µM); in assay [11] it was 100 µg/mL (≈ 220 µM). Moreover, in assay [10] (Table 14, read-out: ED50), the ED50 worked out at 3.1 mg/kg. In [11], the Antibacterial spectra stood at 100 µg/mL.
